# Laboratory results reported in patent US8557816B2, “Aurora kinase modulators and method of use” (Amgen Inc., priority 2007, dated 2013).
# Legend:
# [1] = target: T1, AuroraA-TPX2 (Homo sapiens, UniProt O14965); assay: AuroraA-TPX2 Homogeneous Time Resolved Fluorescent (HTRF) kinase assay; format: biochemical; conditions: average; read-out: AurA_IC50_IP (uM Avg)
# T1 construct: 20 μL of AuroraA-TPX2 KD GST for a final volume of about 41 μL; GST
# T1 sequence (O14965 133-383 limits assumed): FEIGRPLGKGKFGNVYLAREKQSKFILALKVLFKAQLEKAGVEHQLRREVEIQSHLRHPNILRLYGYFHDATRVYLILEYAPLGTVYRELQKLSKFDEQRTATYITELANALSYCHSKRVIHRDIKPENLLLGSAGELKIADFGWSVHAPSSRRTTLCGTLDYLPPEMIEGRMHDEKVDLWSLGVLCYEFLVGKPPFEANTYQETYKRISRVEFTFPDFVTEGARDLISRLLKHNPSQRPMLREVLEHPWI
# T1 sequence (Q9ULW0 1-43 partner limits assumed): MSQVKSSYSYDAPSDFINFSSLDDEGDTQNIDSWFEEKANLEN
# Procedure, shortened: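 HTRF read-out (Eu 615 nm to APC 655 nm) of phosphorylated biotin-PLK, detected with 0.02 nM europium anti-phosphoPLK antibody and 0.0005 mg/mL SA-APC after overnight equilibration.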
# [2] = target: T2, AuroraB (Homo sapiens, UniProt Q96GD4); assay: AuroraB Homogeneous Time Resolved Fluorescent (HTRF) kinase assay; format: biochemical; conditions: average; read-out: AurB_IC50_IP (uM Avg)
# T2 construct: 20 μL of AuroraB FL H is for a final volume of 41 μL; His
# T2 sequence (Q96GD4 whole entry): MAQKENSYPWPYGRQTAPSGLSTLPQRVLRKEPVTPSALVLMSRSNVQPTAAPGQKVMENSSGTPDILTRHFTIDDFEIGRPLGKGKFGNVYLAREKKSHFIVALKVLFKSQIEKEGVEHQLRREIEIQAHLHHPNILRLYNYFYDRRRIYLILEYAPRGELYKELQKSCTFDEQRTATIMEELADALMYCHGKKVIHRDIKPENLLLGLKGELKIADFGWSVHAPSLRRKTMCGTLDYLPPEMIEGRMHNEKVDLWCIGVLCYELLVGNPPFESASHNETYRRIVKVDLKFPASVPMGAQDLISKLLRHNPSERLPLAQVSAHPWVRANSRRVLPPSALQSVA
# Procedure, shortened: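 Read-out is time-resolved FRET between europium anti-phospho-H3 antibody and streptavidin-APC, added in EDTA buffer to stop the reaction and equilibrated about 60 min (ex 320, em 615 and 655 nm). Preceding reaction: ~90 min, full-length enzyme, ATP, 0.1 μM biotin-Histone H3 substrate, Mg/Mn HEPES buffer pH 7.5.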
SMILES,IC50 [1] [µM],IC50 [2] [µM]
"c1ccc(-c2nnc(Nc3ccc(Oc4ccnc5ccsc45)cc3)c3ccccc23)cc1 [compound 251, 4-phenyl-N-(4-(thieno[3,2-b]pyridin-7-yloxy)phenyl)-1-phthalazinamine]",0.376,0.004
"COc1cnc2c(Oc3ccc(Nc4nnc(-c5ccc(Cl)cc5OC)c5ccccc45)cc3)ccnc2c1 [compound 253, 4-(4-chloro-2-(methyloxy)phenyl)-N-(4-((7-(methyloxy)-1,5-naphthyridin-4-yl)oxy)phenyl)-1-phthalazinamine]",0.173,0.009
"COc1cc2nncc(Oc3ccc(Nc4nnc(-c5ccccc5)c5ccccc45)cc3)c2cc1OC [compound 254, N-(4-((6,7-bis(methyloxy)-4-cinnolinyl)oxy)phenyl)-4-phenyl-1-phthalazinamine]",1.64,0.253
"c1ccc(-c2nnc(Nc3ccc(Oc4ncnc5nc[nH]c45)cc3)c3ccccc23)cc1 [compound 257, 4-phenyl-N-(4-(7H-purin-6-yloxy)phenyl)-1-phthalazinamine]",0.868,0.129
"COc1cnc2c(Oc3ccc(Nc4nnc(-c5c(C)nn(C)c5C)c5ccccc45)cc3)ccnc2c1 [compound 261, N-(4-((7-(methyloxy)-1,5-naphthyridin-4-yl)oxy)phenyl)-4-(1,3,5-trimethyl-1H-pyrazol-4-yl)-1-phthalazinamine]",1.61,0.156
"COc1cnc2c(Oc3ccc(Nc4nnc(-c5ccc([S+](C)[O-])cc5)c5ccccc45)cc3)ccnc2c1 (stereo not drawn) [compound 262, N-(4-((7-(methyloxy)-1,5-naphthyridin-4-yl)oxy)phenyl)-4-(4-(methylsulfinyl)phenyl)-1-phthalazinamine]",0.102,0.006
"c1ccc(-c2nnc(Nc3ccc(Oc4ccnc5ccc(N6CCOCC6)cc45)cc3)c3ccccc23)cc1 [compound 264, N-(4-((6-(4-morpholinyl)-4-quinolinyl)oxy)phenyl)-4-phenyl-1-phthalazinamine]",0.139,0.016
"N#Cc1cnc2c(Oc3ccc(Nc4nnc(-c5ccc(Cl)cc5)c5ccccc45)cc3)ccnc2c1 [compound 265, 8-((4-((4-(4-chlorophenyl)-1-phthalazinyl)amino)phenyl)oxy)-1,5-naphthyridine-3-carbonitrile]",0.113,0.009
"Clc1ccc(-c2nnc(Nc3ccc(Oc4ncnc5[nH]cnc45)cc3)c3ccccc23)cc1 [compound 266, 4-(4-chlorophenyl)-N-(4-(9H-purin-6-yloxy)phenyl)-1-phthalazinamine]",0.679,0.045
"c1ccc(-c2nnc(Nc3ccc(Oc4ncnc5[nH]ccc45)cc3)c3ccccc23)cc1 [compound 273, N-(4-(7H-pyrrolo[2,3-d]pyrimidin-4-yloxy)phenyl)-4-phenylphthalazin-1-amine]",1.66,0.039
"CCc1cc(-c2ccc(Cl)cc2)nnc1Nc1ccc(Oc2ccnc3cc(OC)cnc23)nc1 [compound 275, 6-(4-chlorophenyl)-4-ethyl-N-(6-(7-methoxy-1,5-naphthyridin-4-yloxy)pyridin-3-yl)pyridazin-3-amine]",0.156,0.011
"Fc1cc(F)c2c(Oc3ccc(Nc4nnc(-c5ccccc5)c5ccccc45)cc3)ccnc2c1 [compound 276, N-(4-(5,7-difluoroquinolin-4-yloxy)phenyl)-4-phenylphthalazin-1-amine]",0.67,0.018
"COc1cnc2c(Oc3ccc(Nc4nnc(-c5ccccc5)c(C)c4C)cc3)ccnc2c1 [compound 281, 4,5-dimethyl-N-(4-((7-(methyloxy)-1,5-naphthyridin-4-yl)oxy)phenyl)-6-phenyl-3-pyridazinamine]",0.696,0.019
"COc1cnc2c(Oc3ccc(Nc4nnc(-c5ccnc(Cl)c5)c5ccccc45)cc3)ccnc2c1 [compound 283, 4-(2-chloro-4-pyridinyl)-N-(4-((7-(methyloxy)-1,5-naphthyridin-4-yl)oxy)phenyl)-1-phthalazinamine]",0.1,0.01

# Stronger by IC50 [1], values ahead:
IC50 [1] [µM],IC50 [2] [µM],SMILES
0.084,0.01,"CCN(CC)C(=O)c1cc2nccc(Oc3ccc(Nc4nnc(-c5ccc(Cl)cc5)c5ccccc45)cc3)c2s1 [compound 270, 7-((4-((4-(4-chlorophenyl)-1-phthalazinyl)amino)phenyl)oxy)-N,N-diethylthieno[3,2-b]pyridine-2-carboxamide]"
0.082,0.004,"COc1ccc2nccc(Oc3ccc(Nc4nnc(-c5ccc(Cl)cn5)c5ccccc45)cc3)c2c1 [compound 278, 4-(5-chloro-2-pyridinyl)-N-(4-((6-(methyloxy)-4-quinolinyl)oxy)phenyl)-1-phthalazinamine]"
0.078,0.001,"c1ccc2c(-c3ccc4c(c3)OCO4)nnc(Nc3ccc(Oc4ccnc5ccsc45)cc3)c2c1 [compound 279, 4-(1,3-benzodioxol-5-yl)-N-(4-(thieno[3,2-b]pyridin-7-yloxy)phenyl)-1-phthalazinamine]"
0.077,0.005,"Cc1ccc(-c2nnc(Nc3ccc(Oc4ccnc5ccsc45)cc3)c3ccccc23)cc1 [compound 252, 4-(4-methylphenyl)-N-(4-(thieno[3,2-b]pyridin-7-yloxy)phenyl)-1-phthalazinamine]"
0.066,0.024,"COc1cnc2c(Sc3ccc(Nc4nnc(-c5cc(C)cs5)c5ccccc45)cc3)ccnc2c1 [compound 271, N-(4-(7-methoxy-1,5-naphthyridin-4-ylthio)phenyl)-4-(4-methylthiophen-2-yl)phthalazin-1-amine]"
0.066,0.004,"CCc1cc(-c2ccccc2)nnc1Nc1ccc(Sc2ccnc3cc(OC)cnc23)cc1 [compound 274, 4-ethyl-N-(4-(7-methoxy-1,5-naphthyridin-4-ylthio)phenyl)-6-phenylpyridazin-3-amine]"
0.065,0.007,"Cc1nc(-c2nnc(Nc3ccc(Oc4ccnc5cc(C#N)ccc45)cc3)c3ccccc23)sc1C [compound 277, 4-((4-((4-(4,5-dimethyl-1,3-thiazol-2-yl)-1-phthalazinyl)amino)phenyl)oxy)-7-quinolinecarbonitrile]"
0.064,0.003,"COc1cnc2c(Oc3ccc(Nc4nnc(-c5ccc(C)nc5)c5ccccc45)cc3)ccnc2c1 [compound 268, N-(4-((7-(methyloxy)-1,5-naphthyridin-4-yl)oxy)phenyl)-4-(6-methyl-3-pyridinyl)-1-phthalazinamine]"
0.062,0.002,"COc1cnc2c(Oc3ccc(Nc4nnc(-c5cnc6[nH]ccc6c5)c5ccccc45)cc3)ccnc2c1 [compound 280, N-(4-((7-(methyloxy)-1,5-naphthyridin-4-yl)oxy)phenyl)-4-(1H-pyrrolo[2,3-b]pyridin-5-yl)-1-phthalazinamine]"
0.049,0.006,"COc1ccc2nccc(Oc3ccc(Nc4nnc(-c5cc(C)cs5)c5ccccc45)cc3)c2c1 [compound 269, N-(4-((6-(methyloxy)-4-quinolinyl)oxy)phenyl)-4-(4-methyl-2-thienyl)-1-phthalazinamine]"
0.036,0.002,"COc1cnc2c(Oc3ccc(Nc4nnc(-c5ccc(S(C)(=O)=O)cc5)c5ccccc45)cc3)ccnc2c1 [compound 263, N-(4-((7-(methyloxy)-1,5-naphthyridin-4-yl)oxy)phenyl)-4-(4-(methylsulfonyl)phenyl)-1-phthalazinamine]"
0.033,0.001,"c1ccc2c(-c3ccc4c(c3)CCO4)nnc(Nc3ccc(Oc4ccnc5ccsc45)cc3)c2c1 [compound 272, 4-(2,3-dihydrobenzofuran-5-yl)-N-(4-(thieno[3,2-b]pyridin-7-yloxy)phenyl)phthalazin-1-amine]"
0.023,0.006,"O=C(c1cc2nccc(Oc3ccc(Nc4nnc(-c5ccc(Cl)cc5)c5ccccc45)cc3)c2s1)N1CCOCC1 [compound 259, 4-(4-chlorophenyl)-N-(4-((2-(4-morpholinylcarbonyl)thieno-[3,2-b]pyridin-7-yl)oxy)phenyl)-1-phthalazinamine]"
0.012,0.003,"CCc1cc(-c2ccc(Cl)cc2)nnc1Nc1ccc(Oc2ccnc3cc(OC)cnc23)cc1 [compound 256, 6-(4-chlorophenyl)-4-ethyl-N-(4-((7-(methyloxy)-1,5-naphthyridin-4-yl)oxy)phenyl)-3-pyridazinamine]"
0.008,0.009,"COc1cnc2c(Oc3ccc(Nc4nnc(-c5cc(C)c(C)s5)c5ccccc45)cc3)ccnc2c1 [compound 260, 4-(4,5-dimethyl-2-thienyl)-N-(4-((7-(methyloxy)-1,5-naphthyridin-4-yl)oxy)phenyl)-1-phthalazinamine]"
0.005,0.002,"COc1cnc2c(Oc3ccc(Nc4nnc(-c5cccc(N(C)C)c5)c5ccccc45)cc3)ccnc2c1 [compound 258, 4-(3-(dimethylamino)phenyl)-N-(4-((7-(methyloxy)-1,5-naphthyridin-4-yl)oxy)phenyl)-1-phthalazinamine]"
